From ChEMBL document CHEMBL1201862, “PubChem BioAssay data set” (2004)
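96-well plates; 48 h exposure; 5 concentrations. Endpoints by linear interpolation between flanking doses. Not reached: highest tested concentration assigned. Here, GI50 denotes the concentration required for 50% inhibition of growth.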 Active and inactive are the calls of the source. Rule as the data show it: active = GI50 up to about 1.1 µM and inactive = higher.

Tests used:
Experiment in all cases: growth of human tumour cells (NCI), 48 h
[1] = test system: EKVX
[2] = test system: CAKI-1
[3] = test system: SR
[4] = test system: UACC-62
[5] = test system: HCT-116
[6] = test system: UACC-257
[7] = test system: PC-3
[8] = test system: A498
[9] = test system: DU-145
[10] = test system: OVCAR-4
[11] = test system: HL-60
[12] = test system: NCI-H460
[13] = test system: NCI-H522
[14] = test system: CCRF-CEM
[15] = test system: SNB-19
[16] = test system: KM12
[17] = test system: TK-10
[18] = test system: COLO 205
[19] = test system: SK-MEL-5

Measured: GI50

Nc1nc(Cl)cc(NCC2(CO)CCCCC2)n1
inactive: [1] 67 µM | [2] > 100 µM | [3] 68.2 µM | [4] > 100 µM | [5] > 100 µM | [6] 64.7 µM | [7] 83.4 µM | [8] 70.8 µM | [9] > 100 µM | [10] 80.7 µM | [11] > 100 µM | [12] > 100 µM | [13] > 100 µM | [14] > 100 µM | [15] > 100 µM | [16] > 100 µM | [17] > 100 µM | [18] > 100 µM | [19] 44 µM

Oc1nc2nnc(COc3ccc(Cl)cc3Cl)n2nc1Cc1ccccc1
inactive: [1] > 100 µM | [2] > 100 µM | [3] 36.7 µM | [5] 52.5 µM | [6] > 100 µM | [7] > 100 µM | [8] 31.3 µM | [9] > 100 µM | [10] 47.8 µM | [11] 49.2 µM | [12] 84.5 µM | [13] > 100 µM | [14] 33 µM | [15] 31.6 µM | [16] > 100 µM | [17] 34.6 µM | [18] > 100 µM | [19] > 100 µM

NS(=O)(=O)c1ccc(/N=N/c2cc3ccccc3c(C(=O)O)c2O)cc1
inactive: [1] > 100 µM | [2] > 100 µM | [3] 2.31 µM | [4] > 55.7 µM | [5] 12.6 µM | [6] > 58.2 µM | [7] > 48.3 µM | [8] > 53.6 µM | [9] > 46 µM | [10] > 46.5 µM | [11] > 100 µM | [12] 10.5 µM | [13] > 41 µM | [14] 78 µM | [15] > 64.9 µM | [16] 5.18 µM | [17] > 47.4 µM | [18] > 58.6 µM | [19] > 59.2 µM

CSC(=N/C=C/c1ccccc1)SC
inactive: [1] > 100 µM | [2] > 100 µM | [3] > 100 µM | [4] > 100 µM | [5] > 100 µM | [6] > 100 µM | [7] 64.3 µM | [8] > 100 µM | [9] > 100 µM | [10] > 100 µM | [11] 49.9 µM | [12] > 100 µM | [13] 64 µM | [14] 98.9 µM | [15] > 100 µM | [16] > 100 µM | [18] > 100 µM

C=CCN(C(=O)OC(C)(C)C)[C@H](C)C(=O)N[C@@H](C)C(=O)OC
inactive: [1] > 100 µM | [2] > 100 µM | [3] > 100 µM | [4] > 100 µM | [5] > 100 µM | [7] > 100 µM | [8] > 100 µM | [9] > 100 µM | [10] > 100 µM | [11] 1.2 µM | [13] > 100 µM | [14] 36 µM | [15] > 100 µM | [16] > 100 µM | [18] > 100 µM | [19] > 100 µM

C(=N\c1ccc(-c2nc3ccccc3[nH]2)cc1)/c1cccs1
inactive: [1] > 100 µM | [2] > 100 µM | [3] 45.3 µM | [5] > 100 µM | [6] > 100 µM | [7] 73.1 µM | [8] > 100 µM | [9] > 100 µM | [10] > 100 µM | [11] 22 µM | [12] > 100 µM | [13] 62.8 µM | [14] 22 µM | [15] > 100 µM | [16] 58.1 µM | [17] > 100 µM | [18] 97.5 µM | [19] 54 µM
